# Test results: patent US5591757A, “Dihydropyridine composition” (Yamanouchi Pharmaceutical Co., Ltd., priority 1984, dated 1997)
# Counter-ions that a name gives are not always drawn. Like-named read-outs stand apart in the source and are kept apart here.
# What was measured:
# [1] = tested on: mean arterial blood pressure (MBP) and coronary blood flow (Cor. BF); test: Hemodynamic effects in anesthetized open-chest dogs (i.v.); assay type: in vivo, mongrel dogs; details: Canis lupus familiaris, anesthetized dogs; for change in vivo at 1 mg/kg: 1.0 mg/kg iv; for change in vivo at 0.1 mg/kg: 0.1 mg/kg iv; for change in vivo at 0.03 mg/kg: 0.03 mg/kg iv; for change in vivo at 0.3 mg/kg: 0.3 mg/kg iv
# Method: Mongrel dogs of either sex were anesthetized with pentobarbital sodium (30 mg/kg iv). The animals were artificially ventilated with room air. The chest was opened at the left 4th intercostal space. Mean arterial blood pressure (MBP), heart rate (HR), left ventricular pressure (LVP), max. dLVP/dt, mean pulmonary arterial blood pressure (MPAP), cardiac output (CO) and coronary blood flow (Cor. BF) were measured. The test compounds were injected into the femoral vein. […] BF from control values induced by intravenous injection of test compounds.
# Beta-adrenoceptor [2] = molecular target: T1, Beta-adrenoceptor (Rattus norvegicus, UniProt P18090); test: Intrinsic sympathomimetic activity (ISA) in reserpinized rats; assay type: in vivo, male Wistar rats; set-up: The rats were anesthetized with pentobarbital sodium; from tissue; host or cells: heart in the living anesthetized male Wistar rat (reserpine-pretreated, vagotomized); details: reserpine-pretreated rats, iv
# Method: (§1) The rats were pretreated with reserpine (8 mg/kg ip), 18 hr before experiments. […] The heart rate was measured with a cardiotachometer triggered by the QRS of the ECG (lead II) and recorded on a polygraph. After the Control response to isoproterenol at a dose of 0.1 μg/kg iv was obtained, the test compound was injected iv in increasing doses at 20 min intervals.
# In this series of experiments, intrinsic sympathomimetic activity (ISA) was also evaluated.
# left coronary artery = test: Coronary vasodilating effects in dogs (intracoronary); assay type: in vivo, mongrel dogs; details: for Duration of action of coronary vasodilating effect: intracoronary (ia)
# Method: Mongrel dogs of either sex were anesthetized and ventilated as previously described. A thoracotomy was performed at the 4th intercostal space. Following an intravenous injection of heprin (1000 units/kg), blood from the distal end of the cannulated carotid artery was pumped into circumflex branch of the left coronary artery using a servocontrolled peristaltic pump which maintained a constant perfusion pressure of 120 mmHg by means of a pump controller. An electromagnetic flow probe was inserted in the circit to record blood flow through the cannulated coronary artery. The test compounds were administered directly into the rubber tubing connected close to the coronary artery cannula.
# Beta-adrenoceptor [3] = molecular target: T1, Beta-adrenoceptor; test: Beta-adrenoceptor blocking effect in reserpinized rats (isoproterenol chronotropy); assay type: in vivo, male Wistar rats; set-up: The rats were anesthetized with pentobarbital sodium; from tissue; host or cells: heart in the living anesthetized male Wistar rat (reserpine-pretreated, vagotomized); details: isoproterenol 0.1 μg/kg iv, cumulative iv doses, read-out: Beta-Blocking ED50 (50% blockade of positive chronotropic response to isoproterenol)
# Method: as §1
# [4] = read-out: percent change of Cor. BF from control
# [5] = read-out: percent change of MBP from control
# T1 sequence (P18090 whole entry): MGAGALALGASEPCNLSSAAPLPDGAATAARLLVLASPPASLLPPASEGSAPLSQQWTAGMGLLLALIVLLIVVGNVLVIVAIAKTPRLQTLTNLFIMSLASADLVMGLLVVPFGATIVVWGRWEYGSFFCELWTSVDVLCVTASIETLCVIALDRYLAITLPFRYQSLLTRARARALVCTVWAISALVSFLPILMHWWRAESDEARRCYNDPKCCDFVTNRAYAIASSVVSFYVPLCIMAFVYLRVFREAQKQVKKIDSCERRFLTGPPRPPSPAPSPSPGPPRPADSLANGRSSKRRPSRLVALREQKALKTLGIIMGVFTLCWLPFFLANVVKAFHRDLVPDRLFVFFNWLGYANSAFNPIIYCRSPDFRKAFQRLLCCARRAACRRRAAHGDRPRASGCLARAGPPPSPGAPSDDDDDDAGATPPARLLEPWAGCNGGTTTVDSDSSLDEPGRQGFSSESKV
SMILES,"change in vivo at 1 mg/kg [1, 4]","change in vivo at 1 mg/kg [1, 5]",ISA (increase in HR) (Beta-adrenoceptor [2]),ED100 pap (dose for 100% increase of Cor. BF; maximum response to papaverine 300 μg ia = 100%) (left coronary artery),Duration of action of coronary vasodilating effect (left coronary artery),ED50 (Beta-adrenoceptor [3]),"change in vivo at 0.1 mg/kg [1, 4]","change in vivo at 0.1 mg/kg [1, 5]","change in vivo at 0.03 mg/kg [1, 4]","change in vivo at 0.03 mg/kg [1, 5]","change in vivo at 0.3 mg/kg [1, 4]","change in vivo at 0.3 mg/kg [1, 5]"
"COC(=O)C1=C(C)NC(C)=C(C(=O)OCCCCCCNCC(O)COc2ccccc2)C1c1cccc(C(F)(F)F)c1 (stereo not drawn) [Example 7, 6-(2-hydroxy-3-phenoxypropylamino)hexyl methyl 2,6-dimethyl-4-(m-trifluoromethylphenyl)-1,4-dihydropyridin-3,5-dicarboxylate]",24%,-20%,-,100 μg ia,> 60 min,1.93 mg/kg,,,,,,
"COC(=O)C1=C(C)NC(C)=C(C(=O)OCCCCNCC(O)COc2ccccc2)C1c1cccc([N+](=O)[O-])c1.Cl (stereo not drawn) [Example 11, 4-(2-hydroxy-3-phenoxy-propylamino)butyl methyl 2,6-dimethyl-4-(m-nitro-phenyl)-1,4-dihydropyridine-3,5-dicarboxylate hydrochloride]",193%,-41%,++ (an increase in HR by 20 to 29 beats/min was observed),150 μg ia,60 min,0.64 mg/kg,35%,-16%,,,,
"COC(=O)C1=C(C)NC(C)=C(C(=O)OCCCCCCCCCCNCC(O)COc2ccccc2)C1c1cccc([N+](=O)[O-])c1.Cl (stereo not drawn) [Example 13, 10-(2-hydroxy-3-phenoxy-propylamino)decyl methyl 2,6-dimethyl-4-(m-nitro-phenyl)-1,4-dihydropyridine-3,5-dicarboxylate hydrochloride]",,,+ (an increase in HR by 10 to 19 beats/min was observed),12 μg ia,60 min,0.72 mg/kg,,,102%,-21%,,
"CCOC(=O)C1=C(C)NC(C)=C(C(=O)OCCCCCCNCC(O)COc2ccccc2)C1c1cccc([N+](=O)[O-])c1 (stereo not drawn) [Example 18, Ethyl 6-(2-hydroxy-3-phenoxy/propylamino)hexyl 2,6-dimethyl-4-(m-nitrophenyl)-1,4-dihydroxypyridine-3,5-dicarboxylate]",,,-,67 μg ia,> 60 min,1.25 mg/kg,,,,,31%,-22%
"CC1=C(C(=O)OCCCCCCNCC(O)COc2ccccc2)C(c2cccc([N+](=O)[O-])c2)C(C(=O)OC(C)(C)C)=C(C)N1.Cl (stereo not drawn) [Example 21, tert-butyl 6-(2-hydroxy-3-phenoxypropylamino)hexyl 2,6-dimethyl-4-(m-nitrophenyl)-1,4-dihydropyridine-3,5-dicarboxylate hydrochloride]",34%,-28%,+ (an increase in HR by 10 to 19 beats/min was observed),137 μg ia,60 min,1.01 mg/kg,,,,,,
"COCCOC(=O)C1=C(C)NC(C)=C(C(=O)OCCCCCCNCC(O)COc2ccccc2)C1c1cccc([N+](=O)[O-])c1 (stereo not drawn) [Example 22, 6-(2-hydroxy-3-phenoxy-propylamino)hexyl 2-methoxyethyl-2,6-dimethyl-4-(m-nitrophenyl-3,5-dicarboxylate hydrochloride]",,,-,128 μg ia,60 min,0.82 mg/kg,,,,,118%,-22%
"COC(=O)C1=C(C)NC(C)=C(C(=O)OCCCCCCNCC(O)COc2ccccc2C#N)C1c1cccc([N+](=O)[O-])c1.Cl (stereo not drawn) [Example 30, 6-[3-(o-cyanophenoxy)-2-hydroxypropylamino]hexyl methyl 2,6-dimethyl-4-(m-nitrophenyl)-1,4-di-hydropyridine-3,5-dicarboxylate hydrochloride]",,,-,,,0.79 mg/kg,12%,-21%,,,,
"COC(=O)C1=C(C)NC(C)=C(C(=O)OCCCCCCNCC(O)COc2ccccc2Cl)C1c1cccc([N+](=O)[O-])c1 (stereo not drawn) [Example 32, 6-[3-(o-chlorophenoxy)-2-hydroxypropylamino]hexyl methyl 2,6-dimethyl-4-(m-nitrophenyl)-1,4-dihyrdopyridine-3,5-dicarboxylate hydrochloride]",,,-,,,1.18 mg/kg,35%,-18%,,,93%,-36%
"COC(=O)C1=C(C)NC(C)=C(C(=O)OCCCCCCNCC(O)COc2ccccc2)C1c1ccccc1[N+](=O)[O-] (stereo not drawn) [Example 41, 6-(2-hydroxy-3-phenoxypropylamino)hexyl methyl 2,6-dimethyl-4-(o-nitrophenyl)-1,4-dihydropyridine-3,5-dicarboxylate]",,,+++ (an increase in HR by above 30 beats/min),43 μg ia,> 60 min,0.58 mg/kg,,,,,45%,-34%
"COC(=O)C1=C(C)NC(C)=C(C(=O)OCCCCCCNCC(O)COc2ccccc2)C1c1cccc(Cl)c1.Cl (stereo not drawn) [Example 43, 6-(2-hydroxy-3-phenoxypropylamino)hexyl methyl 4-(m-chlorophenyl)-2,6-dimethyl-1,4-dihydro-pyridine-3,5-dicarboxylate hydrochloride]",,,-,56 μg ia,> 60 min,0.87 mg/kg,,,,,44%,-22%
"COC(=O)C1=C(C)NC(C)=C(C(=O)OCCCCCCNCC(O)COc2ccccc2)C1c1cccc(OC)c1 (stereo not drawn) [Example 46, 6-(2-hydroxy-3-phenoxypropylamino)hexyl methyl 2,6-dimethyl-4-(m-methoxyphenyl)-1,4-dihyrdopyridine-3,5-dicarboxylate hydrochloride]",78%,-45%,+ (an increase in HR by 10 to 19 beats/min was observed),98 μg ia,> 60 min,0.66 mg/kg,,,,,36%,-21%
"COC(=O)C1=C(C)NC(C)=C(C(=O)OCCCCCCNCC(O)COc2ccccc2)C1c1ccccc1OC.Cl (stereo not drawn) [Example 47, 6-(2-hydroxy-3-phenoxypropylamino)hexyl methyl 2,6-dimethyl-4-(o-methoxyphenyl)-1,4-dihydropyridine-3,5-dicarboxylate hydrochloride]",57%,-44%,+++ (an increase in HR by above 30 beats/min),245 μg ia,> 60 min,0.11 mg/kg,,,,,30%,-34%
"COC(=O)C1=C(C)NC(C)=C(C(=O)OCCCCCCNCC(O)COc2ccccc2)C1c1cccc(C)c1.Cl (stereo not drawn) [Example 48, 6-(2-hydroxy-3-phenoxypropylamino)hexyl methyl 2,6-dimethyl-4-(m-methylphenyl)-1,4-dihydro-pyridine-3,5-dicarboxylate hydrochloride]",92%,-43%,-,76 μg ia,60 min,0.68 mg/kg,,,,,71%,-20%
